# Measured values as given in patent US20230286923A1 (INIPHARM, INC., priority 2020, published 2023).
# Experiments:
# HSD17B13 enzyme [1] = target: T1, HSD17B13 enzyme (Homo sapiens (Human), UniProt Q7Z5P4); test: Estrone detection assay (LC/MS, conversion of estradiol to estrone) for HSD17B13 activity; format: biochemical; details: substrate 4 µM estradiol, 6 mM NAD+, 30 nM enzyme
# Experimental: The liquid chromatography/mass spectrometry (LC/MS) estrone detection assay monitors the conversion of estradiol to estrone by HSD17B13. This assay was undertaken in a 96wp format (Eppendorf deep well Plate 96/500) in an 80 µl reaction volume containing: 4 µM of Estradiol (E2; Cayman; #10006315), 6 mM NAD^+ (Sigma; #N0623) and 30 nM HSD17B13 enzyme (in-house; E. coli expressed His-tagged, purified, soluble protein) in a reaction containing 1 M potassium phosphate buffer pH 7.4, with 0.5% vehicle (DMSO). Reactions were incubated for 2 hours at 26.5° C., and estradiol (E2) conversion to estrone (E1) was quantitated by LC-MS/MS based analyte detection for both E2 and E1 using LCMS grade reagents.
# Reactions were terminated by the addition of two volumes of acetonitrile (MeCN; LCMS grade; CAS# 75/05/8) containing deuterated (D4)-E1 used as internal standard (Clear Synth; #CS-T-54273; 500 ng/mL final concentration). Samples were applied to pre-prepared Bond Elut-C18 extraction cartridges (3 mL; Agilent; #12102028), washed and eluted in MeCN. Eluates were dried under nitrogen and re-suspended in 60% methanol (LCMS grade methanol; CAS# 67/56/1) before submission for analysis. Aqueous linearity for E2 and E1 were included for quantification.
# Analysis of samples was undertaken on a XBridge BEH C18 column (Waters; #186003033) using 0.1% Diethyl Amine in MeCN (mobile phase A; DEA CAS# 109-89-7) and 0.1% Diethyl Amine in milli-Q water (mobile phase B) in a 3 min gradient allowing 25%B. Analytes were detected in negative mode using MRM analysis, with E2 having a RT of 1.85 min and E1 having a RT of 2 min. Activity of the enzyme, in the absence of NAD^+, was used to evaluate specificity of conversion. Enzyme activity in the presence of test samples was expressed as a percentage of the uninhibited enzyme activity, and plotted versus inhibitor concentration. Non-linear regression was performed using a four-parameter logistic model and GraphPad Prism software (GraphPad Software, La Jolla, CA). All assessments were undertaken in duplicate evaluations and pooled during extraction process and subsequently injected as duplicates for LC-MS/MS analysis.
# HSD17B13 enzyme [2] = target: T1, HSD17B13 enzyme; test: NADH detection assay (fluorescence based LTB3 assay) for HSD17B13 activity; format: biochemical; details: substrate 25 µM LTB3, 3 mM NAD+, 125 nM enzyme
# Experimental: The fluorescence based Leukotriene B3 (LTB3) assay monitors the fluorescence of NADH, which is generated from NAD+ during the dehydrogenation of the substrate LTB3. The reactions were performed in a 384-well plates (Greiner; #655076) in a 20 µl reaction volume containing the following reagents (final concentrations): 25 µM LTB3 (Cayman; #20109); 3 mM NAD^+ (Sigma; #N0623); 125 nM HSD17B13 enzyme (in-house; E. coli expressed His-tagged, purified, soluble protein); 1 M potassium phosphate buffer, pH 7.4; and 1% DMSO. Reactions were initiated by co-addition of NAD+ and enzyme, and monitored for 1 hour at 26.5° C. Generation of NADH was measured as the fluorescence signal (Excitation at 340 nm and Emission at 445 nm) at 1 hour minus the baseline fluorescence at t=0. Fluorescence signals in the absence of LTB3 (negative control values), were subtracted from all values so that the results reflected substrate-dependent production of NADH. NADH standards were included to allow the conversion of relative fluorescence units into rates of enzyme activity. Enzyme activity in the presence of test compounds was expressed as a percentage of the uninhibited enzyme activity, and plotted versus inhibitor concentration. Non-linear regression was performed using a four-parameter logistic model and Microsoft Excel Solver software Ten concentrations of inhibitor were tested in duplicate (in the range of 30 µM - 2.5 nM), and two independent concentration response assays were performed.
# T1 sequence (Q7Z5P4 20-300): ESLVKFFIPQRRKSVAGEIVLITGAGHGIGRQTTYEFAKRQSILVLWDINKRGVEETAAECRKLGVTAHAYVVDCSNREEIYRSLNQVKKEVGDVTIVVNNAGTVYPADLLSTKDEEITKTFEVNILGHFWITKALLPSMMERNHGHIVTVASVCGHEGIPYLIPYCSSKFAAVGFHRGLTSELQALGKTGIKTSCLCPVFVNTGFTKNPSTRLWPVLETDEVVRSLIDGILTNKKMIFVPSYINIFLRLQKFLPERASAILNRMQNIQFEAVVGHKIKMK
IC50 (HSD17B13 enzyme [1]),IC50 (HSD17B13 enzyme [2]),Compound
100 to 1000 nM,–,"N#Cc1cc(C(=O)Nc2cccc3ncn(Cc4cccc(OC(F)(F)F)c4)c(=O)c23)cc(Cl)c1O [Example 48, 3-chloro-5-cyano-4-hydroxy-N-(4-oxo-3-(3-(trifluoromethoxy)benzyl)-3,4-dihydroquinazolin-5-yl)benzamide]"
100 to 1000 nM,–,"N#Cc1cc(C(=O)Nc2cccc3ncn(Cc4cccc(F)c4)c(=O)c23)cc(Cl)c1O [Example 49, 3-chloro-5-cyano-N-(3-(3-fluorobenzyl)-4-oxo-3,4-dihydroquinazolin-5-yl)-4-hydroxybenzamide]"
≤ 100 nM,–,"N#Cc1cc(C(=O)Nc2cccc3ncn(Cc4ccccc4C(F)(F)F)c(=O)c23)cc(F)c1O [Example 52, 3-cyano-5-fluoro-4-hydroxy-N-(4-oxo-3-(2-(trifluoromethyl)benzyl)-3,4-dihydroquinazolin-5-yl)benzamide]"
100 to 1000 nM,–,"N#Cc1cc(C(=O)Nc2cccc3ncn(Cc4ccc(OC(F)(F)F)cc4)c(=O)c23)cc(F)c1O [Example 53, 3-cyano-5-fluoro-4-hydroxy-N-(4-oxo-3-(4-(trifluoromethoxy)benzyl)-3,4-dihydroquinazolin-5-yl)benzamide]"
1000 to 10000 nM,–,"NC(=O)c1cc(C(=O)Nc2cccc3ncn(Cc4cccc(C(F)(F)F)c4)c(=O)c23)cc(F)c1O [Example 54, 5-fluoro-4-hydroxy-N1-(4-oxo-3-(3-(trifluoromethyl)benzyl)-3,4-dihydroquinazolin-5-yl)isophthalamide]"
100 to 1000 nM,–,"N#Cc1cc(C(=O)Nc2cccc3ncn(Cc4cccc(OC(F)(F)F)c4)c(=O)c23)cc(F)c1O [Example 56, 3-cyano-5-fluoro-4-hydroxy-N-(4-oxo-3-(3-(trifluoromethoxy)benzyl)-3,4-dihydroquinazolin-5-yl)benzamide]"
≤ 100 nM,–,"N#Cc1cc(C(=O)Nc2cccc3ncn(Cc4cccc(C(F)(F)F)c4)c(=O)c23)cc(F)c1O [Example 57, 3-cyano-5-fluoro-4-hydroxy-N-(4-oxo-3-(3-(trifluoromethyl)benzyl)-3,4-dihydroquinazolin-5-yl)benzamide]"
100 to 1000 nM,–,"N#Cc1cc(C(=O)Nc2cccc3ncn(Cc4ccc(OC(F)(F)F)cc4)c(=O)c23)cc(Cl)c1O [Example 58, 3-chloro-5-cyano-4-hydroxy-N-(4-oxo-3-(4-(trifluoromethoxy)benzyl)-3,4-dihydroquinazolin-5-yl)benzamide]"
≤ 100 nM,–,"N#Cc1cc(C(=O)Nc2cccc3ncn(Cc4ccc(C(F)(F)F)cc4)c(=O)c23)cc(F)c1O [Example 59, 3-cyano-5-fluoro-4-hydroxy-N-(4-oxo-3-(4-(trifluoromethyl)benzyl)-3,4-dihydroquinazolin-5-yl)benzamide]"
≤ 100 nM,–,"N#Cc1ccccc1Cn1cnc2cccc(NC(=O)c3cc(F)c(O)c(C#N)c3)c2c1=O [Example 60, 3-cyano-N-{3-[(2-cyanophenyl)methyl]-4-oxo-3,4-dihydroquinazolin-5-yl}-5-fluoro-4-hydroxybenzamide]"
100 to 1000 nM,–,"N#Cc1cc(C(=O)Nc2cccc3ncn(Cc4cc[nH]n4)c(=O)c23)cc(F)c1O [Example 61, N-(3-((1H-pyrazol-3-yl)methyl)-4-oxo-3,4-dihydroquinazolin-5-yl)-3-cyano-5-fluoro-4-hydroxybenzamide]"
100 to 1000 nM,–,"CS(=O)(=O)c1ccccc1Cn1cnc2cccc(NC(=O)c3cc(F)c(O)c(C#N)c3)c2c1=O [Example 62, 3-cyano-5-fluoro-4-hydroxy-N-(3-(2-(methylsulfonyl)benzyl)-4-oxo-3,4-dihydroquinazolin-5-yl)benzamide]"

# Further lines, the compound ahead of its results:
Compound,IC50 (HSD17B13 enzyme [1]),IC50 (HSD17B13 enzyme [2])
"COc1ccccc1CCn1cnc2cccc(NC(=O)c3ccc(O)c(Cl)c3)c2c1=O [Example 1, 3-chloro-4-hydroxy-N-(3-(2-methoxyphenethyl)-4-oxo-3,4-dihydroquinazolin-5-yl)benzamide]",≤ 100 nM,≤ 1000 nM
"COc1ccccc1CCn1cnc2cccc(NC(=O)c3ccc(O)c(F)c3)c2c1=O [Example 2, 3-fluoro-4-hydroxy-N-(3-(2-methoxyphenethyl)-4-oxo-3,4-dihydroquinazolin-5-yl)benzamide]",≤ 100 nM,≤ 1000 nM
"O=C(Nc1cccc2ncn(Cc3ccccc3)c(=O)c12)c1ccc(O)c(Cl)c1 [Example 3, N-(3-benzyl-4-oxo-3,4-dihydroquinazolin-5-yl)-3-chloro-4-hydroxybenzamide]",≤ 100 nM,≤ 1000 nM
"COc1ccccc1CCn1cnc2cccc(NC(=O)c3ccc(OCC(=O)O)c(F)c3)c2c1=O [Example 4, 2-(2-fluoro-4-((3-(2-methoxyphenethyl)-4-oxo-3,4-dihydroquinazolin-5-yl)carbamoyl)phenoxy)acetic acid]",1000 to 10000 nM,> 10000 nM
"COc1ccccc1CCn1cnc2cccc(NC(=O)c3ccc(C(=O)O)c(Cl)c3)c2c1=O [Example 5, 2-chloro-4-((3-(2-methoxyphenethyl)-4-oxo-3,4-dihydroquinazolin-5-yl)carbamoyl)benzoic acid]",1000 to 10000 nM,> 10000 nM
"COc1ccccc1Cn1cnc2cccc(NC(=O)c3ccc(O)c(Cl)c3)c2c1=O [Example 6, 3-chloro-4-hydroxy-N-(3-(2-methoxybenzyl)-4-oxo-3,4-dihydroquinazolin-5-yl)benzamide]",≤ 100 nM,≤ 1000 nM
"C[C@@H](c1cccc(F)c1)n1cnc2cccc(NC(=O)c3cc(F)c(O)c(C#N)c3)c2c1=O [Example 47, (S)-3-cyano-5-fluoro-N-(3-(1-(3-fluorophenyl)ethyl)-4-oxo-3,4-dihydroquinazolin-5-yl)-4-hydroxybenzamide]",≤ 100 nM,–
"O=C(Nc1cccc2ncn(Cc3ccccc3OC(F)(F)F)c(=O)c12)c1cc(Cl)c(O)c(C(F)(F)F)n1 [Example 50, 4-chloro-5-hydroxy-N-(4-oxo-3-(2-(trifluoromethoxy)benzyl)-3,4-dihydroquinazolin-5-yl)-6-(trifluoromethyl)picolinamide]",100 to 1000 nM,–
"O=C(Nc1cccc2ncn(Cc3ccc(C(F)(F)F)cc3)c(=O)c12)c1cc(Cl)c(O)c(C(F)(F)F)n1 [Example 51, 4-chloro-5-hydroxy-N-(4-oxo-3-(4-(trifluoromethyl)benzyl)-3,4-dihydroquinazolin-5-yl)-6-(trifluoromethyl)picolinamide]",1000 to 10000 nM,–
"O=C(Nc1cccc2ncn(Cc3ccccc3C(F)(F)F)c(=O)c12)c1cc(Cl)c(O)c(C(F)(F)F)n1 [Example 55, 4-chloro-5-hydroxy-N-(4-oxo-3-(2-(trifluoromethyl)benzyl)-3,4-dihydroquinazolin-5-yl)-6-(trifluoromethyl)picolinamide]",100 to 1000 nM,–
"CC(C)(C)n1ccc(Cn2cnc3cccc(NC(=O)c4cc(F)c(O)c(C#N)c4)c3c2=O)n1 [Example 63, N-(3-((1-(tert-butyl)-1H-pyrazol-3-yl)methyl)-4-oxo-3,4-dihydroquinazolin-5-yl)-3-cyano-5-fluoro-4-hydroxybenzamide]",100 to 1000 nM,–
"O=C(Nc1cccc2ncn(Cc3ccccc3OC(F)(F)F)c(=O)c12)c1cc(F)c(O)c(C(F)(F)F)c1 [Example 64, 3-fluoro-4-hydroxy-N-(4-oxo-3-(2-(trifluoromethoxy)benzyl)-3,4-dihydroquinazolin-5-yl)-5-(trifluoromethyl)benzamide]",≤ 100 nM,–
"O=C(Nc1cccc2ncn(Cc3cccc(F)c3)c(=O)c12)c1cc(Cl)c(O)c(=O)[nH]1 [Example 65, 4-chloro-N-(3-(3-fluorobenzyl)-4-oxo-3,4-dihydroquinazolin-5-yl)-5-hydroxy-6-oxo-1,6-dihydropyridine-2-carboxamide]",> 10000 nM,–
